≈ marks a conversion by molar mass, not a printed value. Values belong to the compound of their own block, whether it stands above or below them. Calls of active or inactive are those of the source. The calls are words filed in the database; no cut-off is given here.
Experiments:
[1] = test system: Staphylococcus epidermidis; experiment: Ratio of compound MIC to ciprofloxacin MIC for Staphylococcus epidermidis NCTC 2749 after 18 hrs by micro dilution method; assay type: functional
Escherichia coli [2] = experiment: Ratio of compound MIC to ciprofloxacin MIC for Escherichia coli NCTC 10418 after 18 hrs by micro dilution method; assay type: functional
Pseudomonas aeruginosa [3] = experiment: Ratio of compound MIC to ciprofloxacin MIC for Pseudomonas aeruginosa environmental isolate after 18 hrs by micro dilution method; assay type: functional
Pseudomonas aeruginosa [4] = experiment: Ratio of compound MIC to ciprofloxacin MIC for Pseudomonas aeruginosa NCTC 10662 after 18 hrs by micro dilution method; assay type: functional
Pseudomonas aeruginosa [5] = experiment: Ratio of compound MIC to ciprofloxacin MIC for Pseudomonas aeruginosa BIG 63 after 18 hrs by micro dilution method; assay type: functional
Serratia marcescens [6] = experiment: Ratio of compound MIC to ciprofloxacin MIC for Serratia marcescens BIG 11 NCTC 1377 after 18 hrs by micro dilution method; assay type: functional
Burkholderia cepacia [7] = experiment: Ratio of compound MIC to ciprofloxacin MIC for Burkholderia cepacia BIG 9 NCTC 10744 after 18 hrs by micro dilution method; assay type: functional
Staphylococcus aureus [8] = experiment: Antimicrobial activity against Staphylococcus aureus NCTC 13142 after 18 hrs by micro dilution method; assay type: functional; conditions: NCTC 13142, 18 h
Staphylococcus aureus [9] = experiment: Antimicrobial activity against Staphylococcus aureus HG-1 after 18 hrs by micro dilution method; assay type: functional; conditions: HG-1, 18 h
Staphylococcus aureus [10] = experiment: Antimicrobial activity against Staphylococcus aureus (Oxford) NCTC 6571 after 18 hrs by micro dilution method; assay type: functional; conditions: (Oxford) NCTC 6571, 18 h
Staphylococcus aureus [11] = experiment: Antimicrobial activity against Staphylococcus aureus NCTC 13143 after 18 hrs by micro dilution method; assay type: functional; conditions: NCTC 13143, 18 h
Staphylococcus aureus [12] = experiment: Antimicrobial activity against Staphylococcus aureus BIG 52 after 18 hrs by micro dilution method; assay type: functional; conditions: BIG 52, 18 h
[13] = test system: Staphylococcus epidermidis; experiment: Antimicrobial activity against Staphylococcus epidermidis NCTC 11047 after 18 hrs by micro dilution method; assay type: functional; conditions: NCTC 11047, 18 h
[14] = test system: Staphylococcus epidermidis; experiment: Antimicrobial activity against Staphylococcus epidermidis NCTC 2749 after 18 hrs by micro dilution method; assay type: functional; conditions: NCTC 2749, 18 h
[15] = test system: Staphylococcus haemolyticus; experiment: Antimicrobial activity against Staphylococcus haemolyticus NCTC 11042 after 18 hrs by micro dilution method; assay type: functional; conditions: NCTC 11042, 18 h
Escherichia coli [16] = experiment: Antimicrobial activity against Escherichia coli NCTC 10418 after 18 hrs by micro dilution method; assay type: functional; conditions: NCTC 10418, 18 h
Escherichia coli [17] = experiment: Antimicrobial activity against Escherichia coli BIG 0046 after 18 hrs by micro dilution method; assay type: functional; conditions: BIG 0046, 18 h
Pseudomonas aeruginosa [18] = experiment: Antimicrobial activity against Pseudomonas aeruginosa environmental isolate BIG 39 after 18 hrs by micro dilution method; assay type: functional; conditions: BIG 39, 18 h
Pseudomonas aeruginosa [19] = experiment: Antimicrobial activity against Pseudomonas aeruginosa BIG 37 clinical isolate after 18 hrs by micro dilution method; assay type: functional; conditions: BIG 37, 18 h
Pseudomonas aeruginosa [20] = experiment: Antimicrobial activity against Pseudomonas aeruginosa NCTC 10662 after 18 hrs by micro dilution method; assay type: functional; conditions: NCTC 10662, 18 h
Pseudomonas aeruginosa [21] = experiment: Antimicrobial activity against Pseudomonas aeruginosa BIG 63 after 18 hrs by micro dilution method; assay type: functional; conditions: BIG 63, 18 h
Serratia marcescens [22] = experiment: Antimicrobial activity against Serratia marcescens BIG 11 NCTC 1377 after 18 hrs by micro dilution method; assay type: functional; conditions: BIG 11 NCTC 1377, 18 h
Burkholderia cepacia [23] = experiment: Antimicrobial activity against Burkholderia cepacia BIG 9 NCTC 10744 after 18 hrs by micro dilution method; assay type: functional; conditions: BIG 9 NCTC 10744, 18 h
Burkholderia cepacia [24] = experiment: Antimicrobial activity against Burkholderia cepacia BIG 117 after 18 hrs by micro dilution method; assay type: functional; conditions: BIG 117, 18 h
Burkholderia cepacia [25] = experiment: Antimicrobial activity against Burkholderia cepacia BIG 118 after 18 hrs by micro dilution method; assay type: functional; conditions: BIG 118, 18 h
Burkholderia cepacia [26] = experiment: Antimicrobial activity against Burkholderia cepacia BIG 119 after 18 hrs by micro dilution method; assay type: functional; conditions: BIG 119, 18 h
Burkholderia cepacia [27] = experiment: Antimicrobial activity against Burkholderia cepacia BIG 120 after 18 hrs by micro dilution method; assay type: functional; conditions: BIG 120, 18 h
Burkholderia cepacia [28] = experiment: Antimicrobial activity against Burkholderia cepacia BIG 121 after 18 hrs by micro dilution method; assay type: functional; conditions: BIG 121, 18 h
[29] = test system: Stenotrophomonas maltophilia; experiment: Antimicrobial activity against Stenotrophomonas maltophilia N1127 after 18 hrs by micro dilution method; assay type: functional; conditions: N1127, 18 h
[30] = test system: Stenotrophomonas maltophilia; experiment: Antimicrobial activity against Stenotrophomonas maltophilia N1124 after 18 hrs by micro dilution method; assay type: functional; conditions: N1124, 18 h
[31] = test system: Stenotrophomonas maltophilia; experiment: Antimicrobial activity against Stenotrophomonas maltophilia N1119 after 18 hrs by micro dilution method; assay type: functional; conditions: N1119, 18 h
[32] = Inhibition of DNA gyrase (unknown origin) assessed as reduction in supercoiled form of DNA at 20 uM using ethidium bromide staining by gel electrophoresis
Staphylococcus aureus [33] = experiment: Ratio of compound MIC to ciprofloxacin MIC for Staphylococcus aureus NCTC 13142 after 18 hrs by micro dilution method; assay type: functional
Staphylococcus aureus [34] = experiment: Ratio of compound MIC to ciprofloxacin MIC for Staphylococcus aureus BIG 52 after 18 hrs by micro dilution method; assay type: functional
[35] = test system: Staphylococcus epidermidis; experiment: Ratio of compound MIC to ciprofloxacin MIC for Staphylococcus epidermidis NCTC 11047 after 18 hrs by micro dilution method; assay type: functional
[36] = test system: Staphylococcus haemolyticus; experiment: Ratio of compound MIC to ciprofloxacin MIC for Staphylococcus haemolyticus NCTC 11042 after 18 hrs by micro dilution method; assay type: functional
Pseudomonas aeruginosa [37] = experiment: Ratio of compound MIC to ciprofloxacin MIC for Pseudomonas aeruginosa BIG 37 clinical isolate after 18 hrs by micro dilution method; assay type: functional
Burkholderia cepacia [38] = experiment: Ratio of compound MIC to ciprofloxacin MIC for Burkholderia cepacia BIG 117 after 18 hrs by micro dilution method; assay type: functional
Burkholderia cepacia [39] = experiment: Ratio of compound MIC to ciprofloxacin MIC for Burkholderia cepacia BIG 118 after 18 hrs by micro dilution method; assay type: functional
Burkholderia cepacia [40] = experiment: Ratio of compound MIC to ciprofloxacin MIC for Burkholderia cepacia BIG 120 after 18 hrs by micro dilution method; assay type: functional
[41] = test system: Stenotrophomonas maltophilia; experiment: Ratio of compound MIC to ciprofloxacin MIC for Stenotrophomonas maltophilia N1127 after 18 hrs by micro dilution method; assay type: functional
[42] = test system: Stenotrophomonas maltophilia; experiment: Ratio of compound MIC to ciprofloxacin MIC for Stenotrophomonas maltophilia N1119 after 18 hrs by micro dilution method; assay type: functional
Staphylococcus aureus [43] = experiment: Ratio of compound MIC to ciprofloxacin MIC for Staphylococcus aureus (Oxford) NCTC 6571 after 18 hrs by micro dilution method; assay type: functional

MIC (Staphylococcus aureus [8]): > 36 µg/mL
MIC (Staphylococcus aureus [9]): > 36 µg/mL
MIC (Staphylococcus aureus [10]): > 36 µg/mL
MIC (Staphylococcus aureus [11]): > 36 µg/mL
MIC (Staphylococcus aureus [12]): > 36 µg/mL
MIC [13]: > 36 µg/mL
MIC [14]: 32 µg/mL (≈ 52.9 µM)
MIC (Escherichia coli [16]): 1 µg/mL (≈ 1.65 µM)
MIC (Escherichia coli [17]): > 36 µg/mL
MIC (Pseudomonas aeruginosa [18]): 16 µg/mL (≈ 26.5 µM)
MIC (Pseudomonas aeruginosa [19]): > 36 µg/mL
MIC (Pseudomonas aeruginosa [20]): 16 µg/mL (≈ 26.5 µM)
MIC (Pseudomonas aeruginosa [21]): 16 µg/mL (≈ 26.5 µM)
MIC (Serratia marcescens [22]): 4 µg/mL (≈ 6.62 µM)
MIC (Burkholderia cepacia [23]): 32 µg/mL (≈ 52.9 µM)
MIC (Burkholderia cepacia [24]): > 36 µg/mL
MIC (Burkholderia cepacia [25]): > 36 µg/mL
MIC (Burkholderia cepacia [26]): > 36 µg/mL
MIC (Burkholderia cepacia [27]): > 36 µg/mL
MIC (Burkholderia cepacia [28]): > 36 µg/mL
MIC [29]: > 36 µg/mL
MIC [30]: > 36 µg/mL
MIC [31]: > 36 µg/mL
inhibition [32]: Active
Compound: O=C(O)CC(O)(CC(=O)NCCCCC(=O)N1CCN(c2cc3c(cc2F)c(=O)c(C(=O)O)cn3C2CC2)CC1)C(=O)O (racemic)
Ratio [1]: 70
Ratio (Escherichia coli [2]): 8.8
Ratio (Pseudomonas aeruginosa [3]): 35
Ratio (Pseudomonas aeruginosa [4]): 35
Ratio (Pseudomonas aeruginosa [5]): 35
Ratio (Serratia marcescens [6]): 36.5
Ratio (Burkholderia cepacia [7]): 35
MIC [15]: > 36 µg/mL

MIC (Staphylococcus aureus [8]): 8 µg/mL (≈ 15.8 µM)
MIC (Staphylococcus aureus [9]): > 36 µg/mL
MIC (Staphylococcus aureus [10]): 16 µg/mL (≈ 31.7 µM)
MIC (Staphylococcus aureus [11]): > 36 µg/mL
MIC (Staphylococcus aureus [12]): 16 µg/mL (≈ 31.7 µM)
MIC [13]: 16 µg/mL (≈ 31.7 µM)
MIC [14]: 8 µg/mL (≈ 15.8 µM)
MIC (Escherichia coli [16]): 0.25 µg/mL (≈ 0.495 µM)
MIC (Escherichia coli [17]): > 36 µg/mL
MIC (Pseudomonas aeruginosa [18]): 4 µg/mL (≈ 7.91 µM)
MIC (Pseudomonas aeruginosa [19]): 16 µg/mL (≈ 31.7 µM)
MIC (Pseudomonas aeruginosa [20]): 4 µg/mL (≈ 7.91 µM)
MIC (Pseudomonas aeruginosa [21]): 4 µg/mL (≈ 7.91 µM)
MIC (Serratia marcescens [22]): 1 µg/mL (≈ 1.98 µM)
MIC (Burkholderia cepacia [23]): 16 µg/mL (≈ 31.7 µM)
MIC (Burkholderia cepacia [24]): 16 µg/mL (≈ 31.7 µM)
MIC (Burkholderia cepacia [25]): 16 µg/mL (≈ 31.7 µM)
MIC (Burkholderia cepacia [26]): > 36 µg/mL
MIC (Burkholderia cepacia [27]): 16 µg/mL (≈ 31.7 µM)
MIC (Burkholderia cepacia [28]): > 36 µg/mL
MIC [29]: 32 µg/mL (≈ 63.3 µM)
MIC [30]: > 36 µg/mL
MIC [31]: 32 µg/mL (≈ 63.3 µM)
inhibition [32]: Active
Compound: O=C(O)CC(O)(CC(=O)N1CCN(c2cc3c(cc2F)c(=O)c(C(=O)O)cn3C2CC2)CC1)C(=O)O (stereo not given)
Ratio (Staphylococcus aureus [33]): 10.5
Ratio (Staphylococcus aureus [34]): 20.9
Ratio [35]: 83.8
Ratio [1]: 20.9
Ratio [36]: 83.8
Ratio (Escherichia coli [2]): 2.8
Ratio (Pseudomonas aeruginosa [3]): 10.5
Ratio (Pseudomonas aeruginosa [37]): 5.2
Ratio (Pseudomonas aeruginosa [4]): 10.5
Ratio (Pseudomonas aeruginosa [5]): 10.5
Ratio (Serratia marcescens [6]): 11
Ratio (Burkholderia cepacia [7]): 20.9
Ratio (Burkholderia cepacia [38]): 10.5
Ratio (Burkholderia cepacia [39]): 41.8
Ratio (Burkholderia cepacia [40]): 5.2
Ratio [41]: 10.5
Ratio [42]: 20.1
MIC [15]: 16 µg/mL (≈ 31.7 µM)
Ratio (Staphylococcus aureus [43]): 41.8
